The source of these data is ChEMBL document CHEMBL1147280, “Isolation Of A Novel Cytotoxic Polyacetylene From A Traditional Anthelmintic Medicinal Plant, Minquartia guianensis” (J Nat Prod, 1989).

In brackets after ≈: the same amount, converted by molar mass.

Usually LC50 stands for the concentration that kills 50% of the test population. A higher LC50 goes with lower toxicity.

For one data set, the system named is P388. Put plainly: Cytotoxicity against mouse P388 cells. The data set is classed as functional. Conditions: read-out: ED50 (the source's name).
Data set [1] can be described thus: Toxicity in brine shrimp larvae. Type of data set: organism-based. Conditions: artemia, in vivo.

Take `CC(O)C#CC#CC#CC#CCCCCCCCC(=O)O` (single isomer, unassigned; (-)): the EC50 in the data set with P388 amounted to 0.53 µg/mL (≈ 1.86 µM). In data set [1], this compound came in with an LC50 of 5.06 µg/mL (≈ 17.8 µM).
